Measured values published in patent US8455186B2, “Method of detection of microorganisms with enhanced bacteriophage amplification” (priority 2007, dated 2013).

Columns and labels:
[1] = test system: clinical MRSA (methicillin-resistant S. aureus) isolates; experiment: Phage amplification in MRSA strains with cefoxitin and/or lauric acid (FIG. 3)
Text: In FIG. 3, each symbol represents a clinical MRSA (methicillin-resistant S. aureus) isolate able to grow in the presence of β-lactam antibiotics such as cefoxitin. The first column 62 (circles) indicates amplification by MRSA strains with no cefoxitin and no lauric acid. The second column 64 (squares) indicates amplification with added cefoxitin. […] The third column 66 (diamonds) indicates amplification with added lauric acid. The fourth column 70 (x's) indicate amplification with added lauric acid and cefoxitin.

S. aureus strains [2] = experiment: Stimulation of bacteriophage amplification by fatty acid compounds, all hosts tested; settings: for effect on bacteriophage amplification: fatty acid compound added to growth medium
[3] = test system: clinical isolates of S. aureus (good bacteriophage hosts); experiment: Bacteriophage amplification on permissive (good) S. aureus hosts with lauric acid (FIG. 2)
[4] = test system: clinical isolates of S. aureus (poorest hosts for bacteriophage amplification); experiment: Bacteriophage amplification (MP112 and MP115) on poor or restrictive S. aureus hosts with lauric acid (FIG. 1)
Text: The 28 strains in this study were chosen from a collection of 202 clinical isolates as the poorest hosts for bacteriophage amplification.

S. aureus strains [5] = experiment: Bacteriophage mean amplification versus sodium pyruvate concentration (FIG. 5); type: cell-based, Staphylococcus aureus
[6] = test system: panel of 32 S. aureus strains; experiment: Bacteriophage sensitivity versus sodium pyruvate concentration (FIG. 4)

`CO[C@@]1(NC(=O)Cc2cccs2)C(=O)N2C(C(=O)O)=C(COC(N)=O)CS[C@@H]21` [cefoxitin, reference compound] was tested, and the “effect on phage amplification in MRSA strains” value ([1]; added cefoxitin, no lauric acid) was “suppression of phage amplification”.
In the case of `CCCCCC(=O)O` [caproic acid], the “effect on bacteriophage amplification” value (S. aureus strains [2]) is reported as “positively stimulate bacteriophage amplification”.
For `CCCCCCCC/C=C\CCCCCCCC(=O)O` [oleic acid], the “effect on bacteriophage amplification” value (S. aureus strains [2]) was “positively stimulate bacteriophage amplification”.
`CCCCCCCCCCCC(=O)O` [lauric acid] was tested, and the “effect on bacteriophage amplification on permissive S. aureus hosts” value ([3]; FIG. 2 legend) was “increases bacteriophage amplification”, the average amplification ([3]; with the addition of lauric acid (5-30 μg/ml), good hosts, 69-fold without) was “over 100 fold” and the “S. aureus strains tested showing stimulation of bacteriophage amplification” value (S. aureus strains [2]; in response to lauric acid, strains tested to date) was “more than 80%”. The “average level of amplification (output pfu/ml divided by input pfu/ml)” value ([4]; 30 μg/ml lauric acid, 28 poor-host strains, four hours at 35°, three-fold with no lauric acid) was 45 fold, the “effect on amplification on poor or restrictive S. aureus hosts” value ([4]; FIG. 1 legend) was “improves amplification” and the “effect on phage amplification in MRSA strains” value ([1]; added lauric acid and cefoxitin) was “relieves suppression of phage amplification by cefoxitin”.
`CCCCCCCCCC(=O)O` [capric acid] was tested, and the “effect on bacteriophage amplification” value (S. aureus strains [2]) was “positively stimulate bacteriophage amplification”.
For `CCCCCCCCCCCCCC(=O)O` [myristic acid], the “effect on bacteriophage amplification” value (S. aureus strains [2]) was “positively stimulate bacteriophage amplification”.
With `CCCCC/C=C\C/C=C\CCCCCCCC(=O)O` [linoleic acid] the “effect on bacteriophage amplification” value (S. aureus strains [2]) was “positively stimulate bacteriophage amplification”.
For `CCCCCCCC(=O)O` [caprylic acid], the “effect on bacteriophage amplification” value (S. aureus strains [2]) was “positively stimulate bacteriophage amplification”.
`CC(=O)C(=O)[O-].[Na+]` [sodium pyruvate] was tested, and the “effect on mean amplification of the bacteriophage” value (S. aureus strains [5]; about 10 mmol/L to 60 mmol/L sodium pyruvate) was “increased significantly”, the “mean amplification of the bacteriophage” value (S. aureus strains [5]; about 30 mmol/L sodium pyruvate, about 92 without) was 150 and the “effect on phage sensitivity” value ([6]; 10 mmol/L to 50 mmol/L sodium pyruvate, wide variety of S. aureus strains) was “significantly increase phage sensitivity”. The phage sensitivity ([6]; 15 mmol/L to 31 mmol/L sodium pyruvate) was “above 90%” and the “increase of sensitivity over sensitivities without sodium pyruvate” value ([6]; 27 mmol/L sodium pyruvate) was “about 15%”.
`CCCCCCCCCCCC(=O)OCC(O)CO` (stereo not shown) [glycerol monolaurate] was tested, and the “effect on bacteriophage amplification” value (S. aureus strains [2]) was “positively stimulate bacteriophage amplification”.
